From patent US6426355B1, “Heterocyclic carboxamide-containing thiourea inhibitors of herpes viruses containing phenylenediamine group” (American Home Products, priority 1998, dated 2002) come the findings set out here.

In brackets after ≈: the same amount, converted by molar mass. A value given as a limit tells only on which side of the number the result lay.

Experiment [1] concerns HCMV recombinant mutant virus (RV145). The experiment is described as follows: HCMV microtiter plate assay (beta-glucuronidase reporter). The class given is cell-based, Human Cytomegalovirus. To be noted: for IC50 (ug/ml) HCMV: HCMV in human foreskin fibroblasts; for IC50: Human betaherpesvirus 5, Fibroblast, read-out: IC50 (ug/ml) HCMV. A digest of the protocol: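 Human foreskin fibroblasts were infected with RV145 in the presence of inhibitor. β-glucuronidase under a viral promoter served as the replication marker. At 96 h post-infection, lysates in pH 7.0 phosphate with Triton X-100/sarkosyl were assayed colorimetrically or fluorometrically, and IC50 was estimated from varying inhibitor amounts.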

A further experiment deals with HSV-1. The experiment is described as follows: HSV Antiviral (ELISA) assay. The format is cell-based. To be noted: for IC50 (ug/ml) HSV: HSV-1 in Vero cells; for IC50: Human alphaherpesvirus 1, HSV-1 in Vero cells, read-out: IC50 (ug/ml) HSV. A digest of the protocol: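 Vero cells in DMEM/2% FBS pretreated with compound 30 min before HSV-1 infection (MOI 0.006), then ~24 h at 37 °C. Viral gD detected by ELISA with β-galactosidase secondary and 4-methylumbelliferyl-galactoside (ex 365/em 450 nm); IC50 from fluorescence versus untreated infected cells.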
Background: An ELISA detects its analyte on a solid surface through an enzyme-linked reagent.

The next experiment relates to VZV strain Ellen. As to the kind of experiment: VZV Antiviral (ELISA) assay. The format is cell-based. To be noted: for IC50: Human alphaherpesvirus 3, VZV strain Ellen in HFF cells, read-out: IC50 (ug/ml) VZV; for inhibition at 10 µg/mL: Human alphaherpesvirus 3, read-out: % inhibition 10 ug/ml VZV, at 10 ug/ml, VZV strain Ellen in HFF cells. A digest of the protocol: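 HFF cells infected overnight with VZV Ellen at MOI <0.1, mixed with uninfected cells, were seeded with compound and grown 3 days at 37° C in DMEM/2% FBS. Viral glycoprotein II was detected by ELISA with β-galactosidase-linked secondary; IC50 from fluorescence versus no-compound wells.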

Regarding `COc1cccc(CCNC(=S)Nc2ccc(NC(=O)c3csnn3)cc2)c1` [Example 637], the “IC50 (ug/ml) HCMV” value in experiment [1] came to 0.014 µg/mL (≈ 0.0339 µM). For the same compound, the “IC50 (ug/ml) HSV” value with HSV-1 was more than 10 µg/mL. In addition, the “IC50 (ug/ml) VZV” value in the experiment with VZV strain Ellen (VZV strain Ellen in HFF cells) is more than 10 µg/mL.
On to `Cc1ccc(CCNC(=S)Nc2ccc(NC(=O)c3csnn3)cc2)cc1` [Example 638], for which the “IC50 (ug/ml) HCMV” value in experiment [1] came to 0.01 µg/mL (≈ 0.0252 µM). For the same compound, the “IC50 (ug/ml) HSV” value in the experiment with HSV-1 was more than 10 µg/mL. Further, in the experiment on VZV strain Ellen (VZV strain Ellen in HFF cells), the “IC50 (ug/ml) VZV” value was more than 10 µg/mL.
Regarding `COc1ccc(CCNC(=S)Nc2ccc(NC(=O)c3csnn3)cc2)cc1OC` [Example 639], in experiment [1], the “IC50 (ug/ml) HCMV” value amounted to 0.07 µg/mL (≈ 0.158 µM). The “IC50 (ug/ml) HSV” value with HSV-1 was more than 10 µg/mL. The “IC50 (ug/ml) VZV” value in the experiment with VZV strain Ellen (VZV strain Ellen in HFF cells) is more than 10 µg/mL.
As for `CC(=O)Nc1cc(Cl)cc(NC(=S)Nc2ccc(NC(=O)c3csnn3)cc2)c1` [Example 644], the “IC50 (ug/ml) HCMV” value in experiment [1] was determined as 0.03 µg/mL (≈ 0.0671 µM). Further, the “IC50 (ug/ml) HSV” value in the experiment on HSV-1 is more than 10 µg/mL. Besides, the “IC50 (ug/ml) VZV” value with VZV strain Ellen (VZV strain Ellen in HFF cells) stood at 8 µg/mL (≈ 17.9 µM).
As to `O=C(Nc1ccc(NC(=S)NCCc2ccc(Cl)c(Cl)c2)cc1)c1csnn1` [Example 645], the “IC50 (ug/ml) HCMV” value in experiment [1] is 0.003 µg/mL (≈ 0.00663 µM). The “IC50 (ug/ml) HSV” value in the experiment with HSV-1 is more than 10 µg/mL. The “IC50 (ug/ml) VZV” value in the experiment on VZV strain Ellen (VZV strain Ellen in HFF cells) stood at 10 µg/mL (≈ 22.1 µM).
`CC(CCc1ccccc1)NC(=S)Nc1ccc(NC(=O)c2csnn2)cc1` (stereo not shown) [Example 646]: the “IC50 (ug/ml) HCMV” value in experiment [1] stood at 0.03 µg/mL (≈ 0.0729 µM). Also, the “IC50 (ug/ml) HSV” value with HSV-1 was more than 10 µg/mL. Also, in the experiment on VZV strain Ellen (VZV strain Ellen in HFF cells), the “IC50 (ug/ml) VZV” value turned out to be 2.5 µg/mL (≈ 6.07 µM).
For the compound `CC(NC(=S)Nc1ccc(NC(=O)c2csnn2)cc1)c1ccc(Br)cc1` (stereo not shown) [Example 647], the “IC50 (ug/ml) HCMV” value in experiment [1] amounted to 0.007 µg/mL (≈ 0.0151 µM). The “IC50 (ug/ml) HSV” value with HSV-1 is more than 10 µg/mL. The “IC50 (ug/ml) VZV” value with VZV strain Ellen (VZV strain Ellen in HFF cells) came out at 0.1 µg/mL (≈ 0.216 µM).
For `CC(NC(=S)Nc1ccc(NC(=O)c2ccncc2)cc1)c1ccc(F)cc1` (stereo not shown) [Example 759], in that order: more than 10 µg/mL, more than 10 µg/mL and 2 µg/mL (≈ 5.07 µM).
Take `O=C(Nc1ccc(NC(=S)NCCc2cc(F)cc(C(F)(F)F)c2)cc1)c1csnn1` [Example 762]: the “IC50 (ug/ml) HCMV” value in experiment [1] worked out at 0.002 µg/mL (≈ 0.00426 µM). In the experiment on HSV-1, the “IC50 (ug/ml) HSV” value is more than 10 µg/mL. In addition, the “IC50 (ug/ml) VZV” value in the experiment with VZV strain Ellen (VZV strain Ellen in HFF cells) was found to be 1.5 µg/mL (≈ 3.19 µM).
For `O=C(Nc1ccc(NC(=S)NCCc2cc(C(F)(F)F)ccc2F)cc1)c1csnn1` [Example 767], in that order: 0.006 µg/mL (≈ 0.0128 µM), more than 10 µg/mL and 1 µg/mL (≈ 2.13 µM).
For `CC(NC(=S)Nc1ccc(NC(=O)c2ccc3ccccc3n2)cc1)c1ccc(F)cc1` (stereo not shown) [Example 796], in that order: 4 µg/mL (≈ 9 µM), more than 10 µg/mL and more than 7.5 µg/mL.
`O=C(Nc1ccc(NC(=S)Nc2cc(Cl)ccc2Cl)cc1)c1csnn1` [Example 866, [1,2,3,]Thiadiazole-4-carboxylic acid {4-[3-(2,5-dichloro-phenyl)-thioureido]-phenyl}-amide]: in experiment [1], the “IC50 (ug/ml) HCMV” value was determined as 0.035 µg/mL (≈ 0.0825 µM). Further, in the experiment with HSV-1, the “IC50 (ug/ml) HSV” value is more than 10 µg/mL. For the same compound, in the experiment with VZV strain Ellen (VZV strain Ellen in HFF cells), the “IC50 (ug/ml) VZV” value was more than 10 µg/mL. Further, the “% inhibition 10 ug/ml VZV” value in the experiment on VZV strain Ellen (at 10 ug/ml, VZV strain Ellen in HFF cells) is listed as 50%.
Consider `COc1c(Cl)cc(NC(=S)Nc2ccc(NC(=O)c3ccco3)cc2)cc1Cl` [Example 875, Furan-2-carboxylic acid {4-[3-(3,5-dichloro-4-methoxy-phenyl)-thioureido]-phenyl}-amide], for which the IC50 in experiment [1] was more than 2.2 µg/mL; with HSV-1, more than 50 µg/mL; with VZV strain Ellen, more than 10 µg/mL. The inhibition at 10 µg/mL in the experiment with VZV strain Ellen stood at 18%.
For `COc1cc(OC)c(NC(=S)Nc2ccc(NC(=O)c3ccco3)cc2)cc1Br` [Example 879, Furan-2-carboxylic acid {4-[3-(5-bromo-2,4-dimethoxy-phenyl)-thioureido]-phenyl}-amide], in that order: 0.3 µg/mL (≈ 0.63 µM), 4 µg/mL (≈ 8.4 µM), 10 µg/mL (≈ 21 µM) and 65%.
Take `COc1ccc(NC(=S)Nc2ccc(NC(=O)c3csnn3)cc2)cc1Cl` [Example 888, [1,2,3]Thiadiazole-4-carboxylic acid {4-[3-(3-chloro-4-methoxy-phenyl)-thioureido]-phenyl}-amide]: the IC50 is 0.06 µg/mL (≈ 0.143 µM) in experiment [1], 6 µg/mL (≈ 14.3 µM) in the experiment on HSV-1 and more than 10 µg/mL with VZV strain Ellen. In the experiment on VZV strain Ellen, the inhibition at 10 µg/mL was 31%.
On to `CSc1ccc(NC(=S)Nc2ccc(NC(=O)c3ccco3)cc2)cc1Cl` [Example 897, Furan-2-carboxylic acid {4-[3-(3-chloro-4-methylsulfanyl-phenyl)-thioureido]-phenyl}-amide], for which the IC50 in experiment [1] was 0.037 µg/mL (≈ 0.0885 µM); in the experiment with HSV-1, more than 10 µg/mL; with VZV strain Ellen, more than 10 µg/mL. Moreover, the inhibition at 10 µg/mL in the experiment with VZV strain Ellen was determined as 62%.
On to `CN(C)c1ccc(NC(=S)Nc2ccc(NC(=O)c3csnn3)cc2)cc1Cl` [Example 902, [1,2,3]Thiadiazole-4-carboxylic acid {4-[3-(3-chloro-4-dimethylamino-phenyl)-thioureido]-phenyl}-amide], for which the IC50 in experiment [1] was 0.12 µg/mL (≈ 0.277 µM); in the experiment with HSV-1 it was more than 10 µg/mL; in the experiment with VZV strain Ellen, more than 10 µg/mL. The inhibition at 10 µg/mL in the experiment on VZV strain Ellen was found to be 10%.
Take `CN1CCC(N(C)c2ccc(NC(=S)Nc3ccc(NC(=O)c4csnn4)cc3)cc2Cl)CC1` [Example 904, [1,2,3]Thiadiazole-4-carboxylic acid [4-(3-{3-chloro-4-[methyl-(1-methyl-piperidin-4-yl)-amino]-phenyl}-thioureido)-phenyl]-amide]: the values for the IC50 (in experiment [1]; with HSV-1; with VZV strain Ellen) were 0.4 µg/mL (≈ 0.775 µM), 12 µg/mL (≈ 23.3 µM) and more than 10 µg/mL, respectively. Besides, the inhibition at 10 µg/mL in the experiment with VZV strain Ellen was 58%.
Turning to `CN(c1ccc(NC(=S)Nc2ccc(NC(=O)c3csnn3)cc2)cc1Cl)C1CCN(Cc2ccccc2)C1` (stereo not shown) [Example 905, [1,2,3]Thiadiazole-4-carboxylic acid [4-(3-{4-[(1-benzyl-pyrrolidin-3-yl)-methyl-amino]-3-chloro-phenyl}-thioureido)-phenyl]-amide], the values for the IC50 (in experiment [1]; with HSV-1; in the experiment on VZV strain Ellen) were 0.3 µg/mL (≈ 0.519 µM), 4 µg/mL (≈ 6.92 µM) and 2 µg/mL (≈ 3.46 µM), respectively. For the same compound, in the experiment on VZV strain Ellen, the inhibition at 10 µg/mL worked out at 82%.
For `COc1cc(C)c(Cl)cc1NC(=S)Nc1ccc(NC(=O)c2csnn2)cc1` [Example 907, [1,2,3]Thiadiazole-4-carboxylic acid {4-[3-(5-chloro-2-methoxy-4-methyl-phenyl)-thioureido]-phenyl}-amide], in that order: 0.009 µg/mL (≈ 0.0207 µM), more than 10 µg/mL, more than 10 µg/mL and 36%.
Regarding `O=C(Nc1ccc(NC(=S)Nc2ccccc2)cc1)c1ccco1` [Example 911, Furan-2-carboxylic acid [4-(3-phenyl-thioureido)-phenyl]-amide], the figures for the IC50 (in experiment [1]; in the experiment with HSV-1; with VZV strain Ellen) were 0.3 µg/mL (≈ 0.889 µM), more than 10 µg/mL and more than 10 µg/mL, respectively. The inhibition at 10 µg/mL in the experiment on VZV strain Ellen was 25%.
Regarding `O=C(Nc1ccc(NC(=S)Nc2ccccc2)cc1)c1csnn1` [Example 912, [1,2,3]Thiadiazole-4-carboxylic acid [4-(3-phenyl-thioureido)-phenyl]-amide], the IC50 is 0.16 µg/mL (≈ 0.45 µM) in experiment [1], more than 10 µg/mL in the experiment on HSV-1 and more than 10 µg/mL with VZV strain Ellen. In the experiment with VZV strain Ellen, the inhibition at 10 µg/mL is 0%.
For the compound `CC(O)c1ccc(NC(=S)Nc2ccc(NC(=O)c3ccco3)cc2)cc1Cl` (stereo not shown) [Example 917, Furan-2-carboxylic acid (4-{3-[3-chloro-4-(1-hydroxy-ethyl)-phenyl]-thioureido}-phenyl)-amide], the results for the IC50 (in experiment [1]; in the experiment with HSV-1; in the experiment on VZV strain Ellen) were 0.2 µg/mL (≈ 0.481 µM), 10 µg/mL (≈ 24 µM) and more than 10 µg/mL, respectively.
As to `Nc1cccc(NC(=S)Nc2ccc(NC(=O)c3csnn3)cc2)c1` [Example 918, [1,2,3]Thiadiazole-4-carboxylic acid {4-[3-(3-amino-phenyl)-thioureido]-phenyl}-amide], the figures for the IC50 (in experiment [1]; in the experiment with HSV-1; in the experiment with VZV strain Ellen) were 0.03 µg/mL (≈ 0.081 µM), more than 10 µg/mL and more than 10 µg/mL, respectively.
For `O=C(Nc1ccc(NC(=S)Nc2ccc(OC(F)(F)F)c(Br)c2)cc1)c1ccco1` [Example 919, Furan-2-carboxylic acid {4-[3-(3-bromo-4-trifluoromethoxy-phenyl)-thioureido]-phenyl}-amide], the IC50 in experiment [1] is 0.05 µg/mL (≈ 0.0999 µM); in the experiment with HSV-1, more than 10 µg/mL; in the experiment on VZV strain Ellen, more than 10 µg/mL.
Take `O=C(Nc1ccc(NC(=S)Nc2cc(Cl)cc(Cl)c2)cc1)c1csnn1` [Example 921, [1,2,3]Thiadiazole-4carboxylic acid {4-[3-(3,5-dichloro-phenyl)-thioureido]-phenyl}-amide]: the values for the IC50 (in experiment [1]; in the experiment with HSV-1; with VZV strain Ellen) were 0.05 µg/mL (≈ 0.118 µM), 8 µg/mL (≈ 18.9 µM) and 7 µg/mL (≈ 16.5 µM), respectively. The inhibition at 10 µg/mL in the experiment with VZV strain Ellen came out at 85%.
In the case of `COc1c(Cl)cc(NC(=S)Nc2ccc(NC(=O)c3cccc(F)c3)cc2)cc1Cl` [Example 922, N-{4-[3-(3,5-Dichloro-4-methoxy-phenyl)-thioureido]-phenyl}-3-fluoro-benzamide], the IC50 was 0.01 µg/mL (≈ 0.0215 µM) in experiment [1], more than 10 µg/mL in the experiment with HSV-1 and 7 µg/mL (≈ 15.1 µM) with VZV strain Ellen. In the experiment on VZV strain Ellen, the inhibition at 10 µg/mL came out at 84%.
